Measurements: patent US20070112043A1, “Acylated and non-acylated imidazo[2,1-b]-1,3,4,-thiadiazole-2-sulfonamides, and uses thereof” (priority 2003, published 2007)
Converted amounts (≈) assume the structure as drawn.

Legend:
log P = type: physicochemical
[1] = Stability of solutions/formulations; type: physicochemical; conditions: for Stability in 10 wt/vol HPCD: PBS/HPCD (25:75) solution; for Stability of HPCD formulation: 10 wt/vol % HPCD, room temperature
Source text: (§1) This is illustrated for compound 15 in Table 7.

pH of formulation = type: physicochemical; conditions: PBS/HPCD (25:75) solution
Source text: as §1

[2] = Solubility in water and formulations; conditions: for Solubility in 10 wt/vol HPCD: PBS/HPCD (25:75) solution; for Solubility 10 wt/vol % HPCD water: Na salts in aqueous 10 wt/vol % HPCD; for Solubility Water: Na salts in water; for solubility in water or in 10% HPCD: TFA salts, not neutralized
Method: (§3) Alternatively, the sodium salt can be prepared in situ by dissolving the free acid in phosphate buffered saline (PBS) that has been buffered to a pH of 7.4. The solubility and stability of these solutions can be improved by the use of an aqueous soluble co-solvent such as, but not limited to HPCD. This solubility can be further improved by the addition of surfactants such as PEG 400. In general, the free acid is suspended in 10 wt/vol % HPDC (10 g dissolved in 100 mL water) and treated with 0.5M PBS (pH 7.4) such that the volumes are in a ratio of 75:25.

Male Sprague-Dawley rats = assay: Rat model of cisplatin induced neuropathy (SNCV); type: in vivo; conditions: for efficacy in cisplatin model of peripheral neuropathy: dose not stated
Method: (§2) Male Sprague-Dawley rats were administered 2.5 mg/kg cisplatin daily, for five consecutive days to achieve a final cumulative dose of 12.5 mg/kg. On the third day following the final cisplatin injection, animals received compounds SC at concentrations of (3, 10, and 30 mg/kg). Dosing continued Monday through Friday for three consecutive weeks. The effect of cisplatin on peripheral nerve function, and the ability of the compounds to attenuate the cisplatin effect were determined after three weeks of drug treatment by measuring the sensory nerve conduction velocity (SNCV) in the caudal nerve of the tail. Stimulating electrodes were used to deliver 2 mA pulses once per second for 1.5 min. The resulting compound sensory nerve action potentials were averaged, and the mean response onset time was determined from the averaged response. Two mean response times were determined, the second being 20 mm distal from the first. The difference in onset time between the two recordings was determined and used to calculate the conductance velocity.
Male Sprague-Dawley rats (weighing 200-225 g on arrival) were intraperitoneally administered 2.5 mg/kg cisplatin daily, for five consecutive days to achieve a final cumulative dose of 12.5 mg/kg. On the third day following the final cisplatin injection, animals received compounds SC at concentrations of (3, 10, and 30 mg/kg). Dosing continued Monday through Friday for three consecutive weeks.
as §2, with “The” for “Male Sprague-Dawley rats were administered 2.5 mg/kg cisplatin daily, for five consecutive days to achieve a final cumulative dose of 12.5 mg/kg. On the third day following the final cisplatin injection, animals received compounds SC at concentrations of (3, 10, and 30 mg/kg). Dosing continued Monday through Friday for three consecutive weeks. The”, “velocity. [formula]” for “velocity.”
The results of these experiments were combined, and ANOVA was performed, followed by a Fisher LSD test.

physchem = conditions: water
Method: as §3

Structure (SMILES) | solubility (physchem) | other results
COCCOCC(=O)NS(=O)(=O)c1nn2cc(-c3ccc(-c4cccc(C(F)(F)F)c4)cc3)nc2s1 [Compound 41] |  | log P (log P): 4.96; Stability in 10 wt/vol HPCD [1]: >1 weeks; pH (pH of formulation): 7.4; Solubility in 10 wt/vol HPCD [2]: 10000 µg/mL (≈ 18500 µM)
[NH-]S(=O)(=O)c1nn2cc(-c3ccc(-c4cccc(C(F)(F)F)c4)cc3)nc2s1.[Na+] [Compound 12] |  | Stability of HPCD formulation [1]: >14 days; Cisplatin-induced loss in SNCV (Male Sprague-Dawley rats; 10-30 mg/kg, data not shown): protective; efficacy in cisplatin model of peripheral neuropathy (Male Sprague-Dawley rats): efficacy; Solubility 10 wt/vol % HPCD water [2]: 4000 µg/mL; Solubility Water [2]: 1400 µg/mL
COCCOCCOCC(=O)NS(=O)(=O)c1nn2cc(-c3ccc(-c4cccc(C(F)(F)F)c4)cc3)nc2s1 [Compound 42] |  | log P (log P): 4.35; Stability in 10 wt/vol HPCD [1]: >4 weeks; pH (pH of formulation): 7.4; Solubility in 10 wt/vol HPCD [2]: 10000 µg/mL (≈ 17100 µM)
COCC(=O)NS(=O)(=O)c1nn2cc(-c3ccc(N4CCOCC4)cc3)nc2s1 [Compound 32] |  | log P (log P): 2.14
COCC(=O)NS(=O)(=O)c1nn2cc(-c3ccc(Oc4ccc(Cl)cc4)cc3)nc2s1 [Compound 45] |  | Cisplatin-induced attenuation of SNCV (Male Sprague-Dawley rats; 30 mg/kg SC): protective activity
[NH-]S(=O)(=O)c1nn2cc(-c3ccc(N4CCOCC4)cc3)nc2s1.[Na+] [Compound 6] |  | Stability of HPCD formulation [1]: >14 days; Cisplatin-induced loss in SNCV (Male Sprague-Dawley rats; 10-30 mg/kg, data not shown): protective; efficacy in cisplatin model of peripheral neuropathy (Male Sprague-Dawley rats): efficacy; Solubility 10 wt/vol % HPCD water [2]: 15000 µg/mL; Solubility Water [2]: 2300 µg/mL
[NH-]S(=O)(=O)c1nn2cc(-c3ccc(Oc4ccc(Cl)cc4)cc3)nc2s1.[Na+] [Compound 14] |  | Stability of HPCD formulation [1]: >14 days; Cisplatin-induced attenuation of SNCV (Male Sprague-Dawley rats; 10 mg/kg): prevented; Cisplatin-induced loss in SNCV (Male Sprague-Dawley rats; 10 and 30 mg/kg): prevented; efficacy in cisplatin model of peripheral neuropathy (Male Sprague-Dawley rats): efficacy; Solubility 10 wt/vol % HPCD water [2]: 20000 µg/mL; Solubility Water [2]: 10000 µg/mL
COc1ccc(-c2ccc(-c3cn4nc(S(N)(=O)=O)sc4n3)cc2)cc1 [Compound 101] | < 500 µg/mL | 
NS(=O)(=O)c1nn2cc(-c3ccc(Oc4ccc(F)c(F)c4)cc3)nc2s1 [Compound 112] | < 500 µg/mL | 
CC1(C)CCC(C)(C)c2cc(-c3cn4nc(S(N)(=O)=O)sc4n3)ccc21 [Compound 88] | < 500 µg/mL | 
NS(=O)(=O)c1nn2cc(-c3ccc(OCCOCc4ccccc4)cc3)nc2s1 [Compound 72] | < 500 µg/mL | 
NS(=O)(=O)c1nn2cc(-c3ccc(Br)cc3)nc2s1 [Compound 60] | < 500 µg/mL | 
NS(=O)(=O)c1nn2cc(-c3ccc(Oc4ccccc4)cc3)nc2s1 [Compound 110] | < 500 µg/mL | 
CSCCC(N)C(=O)NS(=O)(=O)c1nn2cc(-c3ccccc3)nc2s1 (stereo not shown) [Compound 24] |  | solubility in water or in 10% HPCD [2]: not soluble
NS(=O)(=O)c1nn2cc(-c3cc(-c4ccccc4)no3)nc2s1 [Compound 135] | < 500 µg/mL | 
CC(C)c1ccc(Oc2ccc(-c3cn4nc(S(N)(=O)=O)sc4n3)cc2)cc1 [Compound 118] | < 500 µg/mL | 
Cc1ccc(C23CC4CC(CC2C4)C3)cc1-c1cn2nc(S(N)(=O)=O)sc2n1 [Compound 83] | < 500 µg/mL | 
NS(=O)(=O)c1nn2cc(-c3ccc(Oc4ccccc4Br)cc3)nc2s1 [Compound 114] | < 500 µg/mL | 
NS(=O)(=O)c1nn2cc(-c3ccc(Cl)c(Cl)c3)nc2s1 [Compound 57] | < 500 µg/mL | 
CN(C)c1cccc(Oc2ccc(-c3cn4nc(S(N)(=O)=O)sc4n3)cc2)c1 [Compound 117] | < 500 µg/mL | 
NS(=O)(=O)c1nn2cc(-c3cccc(Br)c3)nc2s1 [Compound 59] | < 500 µg/mL | 
NS(=O)(=O)c1nn2cc(-c3ccc(-c4ccccc4)cc3)nc2s1 [Compound 98] | < 500 µg/mL | 
NS(=O)(=O)c1nn2cc(-c3ccc(-c4cccs4)cc3)nc2s1 [Compound 107] | < 500 µg/mL | 
COC(=O)c1ccc(-c2cn3nc(S(N)(=O)=O)sc3n2)cc1 [Compound 76] | < 500 µg/mL | 
Cc1ccc(-c2cn3nc(S(N)(=O)=O)sc3n2)cc1Cl [Compound 122] | < 500 µg/mL | 
Cc1nc(C)c(-c2cn3nc(S(N)(=O)=O)sc3n2)s1 [Compound 139] | < 500 µg/mL | 
CC(C)(C)c1ccc(-c2cn3nc(S(N)(=O)=O)sc3n2)cc1 [Compound 81] | < 500 µg/mL | 

Structure (SMILES) | solubility (physchem) | other results
NS(=O)(=O)c1nn2cc(-c3ccc(OCCC(F)(F)F)cc3)nc2s1 [Compound 70] | < 500 µg/mL | 
NS(=O)(=O)c1nn2cc(-c3cc4ccccc4oc3=O)nc2s1 [Compound 127] | < 500 µg/mL | 
CC(=O)OCCOc1ccc(-c2cn3nc(S(N)(=O)=O)sc3n2)cc1 [Compound 69] | < 500 µg/mL | 
Cc1ccc(-c2cn3nc(S(N)(=O)=O)sc3n2)c(C)c1 [Compound 80] | < 500 µg/mL | 
N#Cc1ccc(-c2cn3nc(S(N)(=O)=O)sc3n2)cc1 [Compound 78] | < 500 µg/mL | 
NS(=O)(=O)c1nn2cc(-c3ccc(-c4ccc5c(c4)OCO5)cc3)nc2s1 [Compound 103] | < 500 µg/mL | 
NS(=O)(=O)c1nn2cc(-c3ccc4ccccc4c3)nc2s1 [Compound 94] | < 500 µg/mL | 
NS(=O)(=O)c1nn2cc(C34CC5CC(CC(C5)C3)C4)nc2s1 [Compound 92] | < 500 µg/mL | 
CC(C)(C)c1cc(-c2cn3nc(S(N)(=O)=O)sc3n2)cc(C(C)(C)C)c1 [Compound 87] | < 500 µg/mL | 
COc1ccc(-c2cn3nc(S(N)(=O)=O)sc3n2)c(OC)c1 [Compound 64] | < 500 µg/mL | 
NS(=O)(=O)c1nn2cc(-c3ccc(F)c(F)c3)nc2s1 [Compound 55] | < 500 µg/mL | 
NS(=O)(=O)c1nn2cc(-c3ccc(-c4ccccc4)s3)nc2s1 [Compound 131] | < 500 µg/mL | 
Br.NS(=O)(=O)c1nn2cc(-c3ccc([N+](=O)[O-])s3)nc2s1 [Compound 132] | < 500 µg/mL | 
NS(=O)(=O)c1nn2cc(-c3ccc(Cl)c([N+](=O)[O-])c3)nc2s1 [Compound 75] | < 500 µg/mL | 
NS(=O)(=O)c1nn2cc(-c3ccc(-c4ccc(C(F)(F)F)cc4)cc3)nc2s1 [Compound 105] | < 500 µg/mL | 
NS(=O)(=O)c1nn2cc(-c3ccc(Oc4ccc(F)cc4)cc3)nc2s1 [Compound 111] | < 500 µg/mL | 
NS(=O)(=O)c1nn2cc(-c3ccc(Oc4ccc([N+](=O)[O-])cc4)cc3)nc2s1 [Compound 120] | < 500 µg/mL | 
O=C(NS(=O)(=O)c1nn2cc(-c3ccccc3)nc2s1)C1CCCN1 (stereo not shown) [Compound 26] |  | solubility in water or in 10% HPCD [2]: not soluble
NS(=O)(=O)c1nn2cc(-c3ccc(-c4c(F)c(F)c(F)c(F)c4F)cc3)nc2s1 [Compound 99] | < 500 µg/mL | 
NS(=O)(=O)c1nn2cc(-c3cnccn3)nc2s1 [Compound 126] | < 500 µg/mL | 
NS(=O)(=O)c1nn2cc(-c3ccc(F)cc3)nc2s1 [Compound 54] | < 500 µg/mL | 
NS(=O)(=O)c1nn2cc(-c3ccc(Oc4cccc(Br)c4)cc3)nc2s1 [Compound 115] | < 500 µg/mL | 
CC(=O)N[C@H](C)c1ccc(-c2cn3nc(S(N)(=O)=O)sc3n2)cc1 [Compound 90] | < 500 µg/mL | 
NS(=O)(=O)c1nn2cc(-c3ccc(-c4cc(C(F)(F)F)cc(C(F)(F)F)c4)cc3)nc2s1 [Compound 106] | < 500 µg/mL | 
NS(=O)(=O)c1nn2cc(-c3nccs3)nc2s1 [Compound 138] | < 500 µg/mL | 
NS(=O)(=O)c1nn2cc(-c3ccc(-c4ccsc4)cc3)nc2s1 [Compound 108] | < 500 µg/mL | 
NS(=O)(=O)c1nn2cc(-c3ccc(Cl)cc3)nc2s1 [Compound 56] | < 500 µg/mL | 
